The source of these data is PubChem BioAssay (NCI).

What all share (assay): NCI tumour cell line growth inhibition, 48 h
The test system of assay [1] is CCRF-CEM leukemia.
The subject of assay [2] is M14 melanoma.
For assay [3], the system named is MALME-3M melanoma.
For assay [4], the system named is MDA-MB-435.
Assay [5] deals with NCI-H460 lung.
The test system of assay [6] is OVCAR-4 ovarian.
The subject of assay [7] is OVCAR-8 ovarian.
Assay [8] has as its system SK-OV-3 ovarian.
For assay [9], the system named is T-47D breast.
Assay [10] concerns UACC-62 melanoma.

SMILES strings stand for the structures.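 Interpolation was linear, between the two tested concentrations surrounding the appropriate level; five concentrations were tested over 48 hours in 96-well plates. TGI denotes the concentration required for complete inhibition of growth.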 Where only a bound is given, the exact number is not on record here.

As for `O=C1c2c(Br)sc(Br)c2[C@@H](NC(=O)C(F)(F)F)C1Br` (stereo not given in full), the TGI was 5.64 µM in assay [1]; 6.23 µM in assay [2]; 4.88 µM in assay [3]; 5.27 µM in assay [4]; 31 µM in [5]; 5.33 µM in assay [6]. Also, the TGI in [7] came out at 7.73 µM; in assay [8], 32.8 µM; in assay [9] it was 14.7 µM; in [10], 14.6 µM.
Turning to `CN1CCN(c2ccc3c(c2)NCC(=O)N3)CC1`, the TGI in [1], in [2], in [3], in assay [4], in assay [5] and in [6] was over 100 µM throughout. In addition, the TGI in [7], in [8], in assay [9] and in assay [10] was over 100 µM each time.
For the molecule `Clc1ccc(C2ON=C(c3ccccc3)N2C23CC4CC(CC(C4)C2)C3)cc1` (stereo not given), the TGI in assay [1], in assay [2], in assay [3], in assay [4], in assay [5] and in assay [6] was over 10 µM in each case. The TGI in [7], in [8], in assay [9] and in assay [10] was over 10 µM in each case.
For `N#Cc1nc(C#N)n(S(=O)(=O)c2ccccc2)c1NS(=O)(=O)c1ccccc1`, the TGI in assay [1], in assay [2], in assay [3], in [4], in assay [5] and in assay [6] was over 100 µM throughout. Further, the TGI in [7], in assay [8], in [9] and in [10] was over 100 µM in each case.
For `CC(C)(C)NC(=O)CCC1C(C(=O)NC(C)(C)C)C2(Cl)C(Cl)=C(Cl)C1(Cl)C2(Cl)Cl` (stereo not given), the TGI in [1], in assay [2], in assay [3], in [4], in assay [5] and in [6] was over 100 µM throughout. Moreover, the TGI in assay [7], in assay [8], in [9] and in assay [10] was over 100 µM throughout.
Turning to `CCc1ccc2c(c1)N(CC(C)CN(C)C)c1ccccc1S2` (stereo not given), the TGI is 4.99 µM in assay [1]; 4.12 µM in assay [2]; 8.37 µM in assay [3]; 8.13 µM in assay [4]; 8.51 µM in assay [5]; 17 µM in assay [6]. The TGI in assay [7] was 21.8 µM; in assay [8], 18.7 µM; in [9] it was 10.7 µM; in assay [10] it was 13.1 µM.
In the case of `O=C(O)c1cc(CCc2cc(O)ccc2O)ccc1O`, the TGI in [1] is 71.4 µM; in assay [2], over 100 µM; in assay [3], over 100 µM; in assay [4] it was over 100 µM; in assay [5], over 100 µM; in [6], over 100 µM. Besides, the TGI in assay [7], in assay [8], in assay [9] and in assay [10] was over 100 µM in each case.
For the molecule `CCOC(=O)Cn1nnc2ccc(Nc3nc4ccccc4nc3-c3ccccc3)cc21`, the TGI in assay [1], in assay [2], in [3], in assay [4], in assay [5] and in assay [6] was over 100 µM throughout. Moreover, the TGI in [7], in [8], in assay [9] and in assay [10] was over 100 µM in each case.
For the molecule `O=C(c1ccco1)N(C(=O)N1CCN(c2ccccc2)CC1)S(=O)(=O)c1ccccc1`, the TGI in assay [1] was 87.6 µM; in [2], 60.4 µM; in assay [3] it was 99.8 µM; in [4], 56.3 µM; in [5], over 100 µM; in assay [6] it was over 100 µM. In addition, the TGI is over 100 µM in assay [7], over 100 µM in assay [8], 61 µM in assay [9] and 82 µM in assay [10].
In the case of `NC(Cc1ccc(S(=O)(=O)O)cc1)C(=O)NC(Cc1ccc(S(=O)(=O)O)cc1)C(=O)NC(Cc1ccc(S(=O)(=O)O)cc1)C(=O)NC(Cc1ccc(S(=O)(=O)O)cc1)C(=O)O` (stereo not given), the TGI in assay [1], in assay [2], in assay [3], in [4], in [5] and in assay [6] was over 100 µM throughout. The TGI in [7], in [8], in [9] and in [10] was over 100 µM each time.
As to `CCCn1c(=O)c(N2CCN(c3ccccc3)CC2)nc2sc3ccccc3c21`, the TGI in assay [1], in assay [2], in assay [3], in assay [4], in assay [5] and in [6] was over 100 µM in each case. For the same molecule, the TGI in [7], in assay [8], in [9] and in assay [10] was over 100 µM in each case.
For `CC(=O)OCC1OC(OCCCOP(=S)(OCCC#N)OCC2OC(n3ccc(N)nc3=O)C(OC(=O)c3ccccc3)C2OC(=O)c2ccccc2)C(OC(C)=O)C(OC(C)=O)C1OC(C)=O` (stereo not given), the TGI in [1], in [2], in assay [3], in [4], in [5] and in assay [6] was over 100 µM in each case. The TGI in assay [7], in [8], in assay [9] and in assay [10] was over 100 µM throughout.
With `Nc1ccc(Nc2cc(=O)[nH]c(=O)[nH]2)cc1Cl`, the TGI in assay [1], in assay [2], in assay [3], in assay [4], in [5] and in assay [6] was over 100 µM in each case. The TGI in [7], in [8], in assay [9] and in assay [10] was over 100 µM each time.
